Measurements from US20060069038A1, “Irreversible caspase-3 inhibitors as active site probes” (priority 2003, published 2006).
Where two headings read alike, the source gives them in different places.

What was measured:
Assay type in all cases: cell-based
rat thymocytes = experiment: DNA fragmentation (flow cytometry) in cultured rat thymocytes; conditions: for IC50: Rattus norvegicus, Thymocyte
Protocol: Rat thymocytes were cultured for 24 hours at a density of 10×10^6 cells/ml in CytoSF4 supplemented with 2 mM L-glutamine and penicillin-streptamycin and the indicated concentration of caspase inhibitors.
DNA fragmentation was determined by flow cytometry on 1.5×10^6 thymocytes or 500,000 Jurkat cells fixed for 30 min on ice in 80% EtOH. The cells were pelleted by centrifugation at 300 g for 10 min, suspended in PBS and incubated on ice for 45 min. […] Several dilutions were prepared for each sample to ensure that signal would be found within the assays linear range.

caspase-3 = biological target: T1, caspase-3 (Homo sapiens, UniProt P42574); experiment: [125I]-M808 labeling of caspase subunits in apoptotic Jurkat cells with caspase inhibitor; conditions: increasing inhibitor concentration, FIG. 4
T1 construct: endogenous in cells; host or cells: Jurkat cells, apoptosis induced with camptothecin
T1 sequence (P42574 29-175 limits assumed): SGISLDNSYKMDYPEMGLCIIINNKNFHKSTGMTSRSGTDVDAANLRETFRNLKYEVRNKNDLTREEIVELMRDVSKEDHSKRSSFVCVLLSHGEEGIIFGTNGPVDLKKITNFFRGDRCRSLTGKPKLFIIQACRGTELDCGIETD
T1 sequence (P42574 176-277 limits assumed): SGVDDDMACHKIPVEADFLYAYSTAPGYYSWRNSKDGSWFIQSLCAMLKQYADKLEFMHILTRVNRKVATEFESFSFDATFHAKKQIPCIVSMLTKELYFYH
Protocol: Jurkat cells (ATCC # TEB-152) were maintained in RPMI1640 supplemented with 10% FBS, 2 mM L-glutamine and antibiotics (penicillin and streptamycin). Apoptosis was induced on cells (1 million cells/ml) that had been starved for 36 hours in CytoSf4 media (Kemp technologies) by addition of camptothecin (Sigma; 3 μg/ml). NT2 cells (ATCC 3813555) were cultured in DMEM+10% FBS+2 mM L-glutamine and antibiotics. Apoptosis induced with camptothecin (5 μg/ml) in culture media.
The determination of caspase activity by [^125I]-M808 labeling was performed by pre-incubating purified recombinant human caspase-3 with indicated amounts of caspase inhibitor (M791) or vehicle (DMSO), for 1 hour at 25° C. in ICE buffer III (50 mM Hepes-KOH pH 7.0, 0.1% CHAPS, 10% sucrose, 2 mM EDTA), supplemented with 5 mM DTT. [^125I]-M808 was added to a final concentration of 1.25 μM and incubated for 5 min at 25° C. Active caspases in tissue or cell extracts were labeled by incubating 60-80 μg of lysate with [^125I]-M808 for 15 minutes at 25° C. Labeling was stopped by addition of Laemli buffer (2% SDS; 0.35 M O-mercaptoethanol; 50 mM Tris-Cl pH 6.8; 10% glycerol; 0.05% bromophenol blue) and by heating at 95° C. for 5 minutes. Caspase labeling in whole cells was performed as following. NT2 cells were plated in 24-well dishes (50 000 cells/well) in DMEM+10% FBS. […]

spectrin cleavage = experiment: Spectrin cleavage in cultured thymocytes; conditions: Rattus norvegicus, Thymocyte, N. Methot et al., in press, read-out: IC50, inhibition of spectrin cleavage

SMILES: CCCCCN(C)CC(=O)[C@H](CC(=O)O)NC(=O)[C@H](CC)n1cc(C(C)(C)C)nc(NCc2nonc2C)c1=O [Example M867, (3S)-3-({(2S)-2-[5-tert-butyl-3-{[(4-methyl-1,2,5-oxadiazol-3-yl)methyl]amino}-2-oxopyrazin-1(2H)-yl]butanoyl}amino)-5-[methyl(pentyl)amino]-4-oxopentanoic acid]
- IC50 (rat thymocytes; cultured rat thymocytes, experiment of FIG. 5, read-out: IC50, inhibition of DNA fragmentation): 240 nM
- IC50 (rat thymocytes; cultured thymocytes, N. Methot et al., in press, p<0.01 vs spectrin cleavage, read-out: IC50, inhibition of DNA fragmentation): 270 nM
- IC50 (rat thymocytes; five independent experiments, read-out: DNA fragmentation IC50): 270 nM
- M867 required to inhibit DNA fragmentation compared to spectrin cleavage (rat thymocytes; ratio of IC50s): Three-fold
- intensity of [125I]-M808-labeled caspase-3 bands (occupancy) (caspase-3): intensity of the radiolabeled bands decreased as the concentration of M867 increased
- IC50 (spectrin cleavage): 90 nM
